Data from patent US10905744B2, “Pharmaceutical formulations for the oral delivery of peptide drugs” (Cyprumed GmbH, priority 2015, dated 2021).

Columns and labels:
[1] = Compatibility of absorption enhancers with trace elements: dissolution in aqueous medium, visual examination (Example 1); type: physicochemical
Procedure: Solid dry powder mixtures of desmopressin acetate, zinc sulfate or iron(III) chloride, and different absorption enhancers were prepared and dissolved in 2 ml aqua purificata.

[2] = GLP-1 peptide formulations with SNAC and trace elements: dissolution in aqua purificata, visual (Example 4); type: physicochemical; details: liraglutide 1.8 mg/ml, SNAC 20 mg, trace element 2 mg, disodium phosphate dihydrate, 2 ml aqua purificata
Procedure: Compositions comprising a GLP-1 peptide, a complexing agent (disodium phosphate dihydrate), the absorption enhancer N-(8-[2-hydroxybenzoyl]amino)caprylic acid (SNAC) and various trace elements or metal salts were prepared and dissolved in 2 ml of aqua purificata and examined visually.

trypsin = target: T1, trypsin (Bos taurus, UniProt P00760); experiment: Trypsin inhibition, BAPNA substrate, absorbance at 405 nm (Examples 10-12, 20-22, 25, 26, 28, 29, 33); type: biochemical
T1 construct: gene PRSS1
T1 sequence (P00760 24-246): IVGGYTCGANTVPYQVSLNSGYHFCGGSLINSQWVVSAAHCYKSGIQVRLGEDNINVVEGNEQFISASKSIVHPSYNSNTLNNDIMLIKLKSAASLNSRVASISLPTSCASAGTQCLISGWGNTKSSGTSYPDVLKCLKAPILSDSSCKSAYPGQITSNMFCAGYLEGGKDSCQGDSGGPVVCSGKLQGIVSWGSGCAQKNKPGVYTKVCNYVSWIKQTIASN
Procedure: 100 mg/ml copper gluconate in 50 mM TRIS pH 7; pH was adjusted to pH 7; stock solution was diluted to the following concentrations: 50 mg/ml, 25 mg/ml, 12.5 mg/ml, 5 mg/ml, 6.25 mg/ml, 3.125 mg/ml, 2.5 mg/ml, 1.25 mg/ml, 0.625 mg/ml, 0.313 mg/ml, 0.156 mg/ml and 0.078 mg/ml
0.5 mg/mL Benzoyl-Arginine p-nitroanilide (BAPNA)
100 μl 50 mM TRIS pH 7+50 μL Trypsin Stock+50 μL BAPNA Stock
100 μl Copper solution (according to the above described dilutions)+50 μL Trypsin Stock+50 μL BAPNA Stock
Absorption was measured after 15 minutes at 405 nm.
Values were corrected (subtraction of blank).
100 mg/ml Zinc bisglycinate in 50 mM TRIS pH 7; pH was adjusted to pH 7; stock solution was diluted to the following concentrations: 50 mg/ml and 25 mg/ml
100 μl Zinc solution (according to the above described dilutions)+50 μL Trypsin Stock+50 μL BAPNA Stock
10 mg/ml iron gluconate in 50 mM TRIS pH 7; pH was adjusted to pH 7; stock solution was diluted to the following concentrations: 5 mg/ml, 2.5 mg/ml, 1.25 mg/ml and 0.625 mg/ml
100 μl Iron solution (according to the above described dilutions)+50 μL Trypsin Stock+50 μL BAPNA Stock
Absorption was measured directly at 405 nm.
Benzoyl-Arginine p-nitroanilide (BAPNA): 0.5 mg/ml in 50 mM TRIS pH 7 (centrifuged and supernatant used as stock solution)
Trypsin: […] in 50 mM TRIS pH 7
1 mg/mL iron gluconate in 10 mM TRIS pH 7 (iron content=12%), 0.12 mg/ml iron
12 mg/mL copper lysinate in 10 mM TRIS pH 7 (copper content=3%), 0.12 mg/ml copper
100 μl of the respective salt solution+50 μL Trypsin Stock+50 μL BAPNA Stock
Experiments were carried out at pH 7, 50 mM TRIS.
0.025 mg/ml Trypsin, 0.125 mg/mL Benzoyl-Arginine p-nitroanilide (BAPNA.) Lauryl glutamate:
0.25 mg/ml; copper content (as copper(II)gluconate): 0.035 mg/ml.
Adsorption measurement at 405 nm
0.025 mg/ml Trypsin, 0.125 mg/mL Benzoyl-Arginine p-nitroanilide (BAPNA). lauryl-glutamate:
Absorption measurement at 405 nm
0.025 mg/ml Trypsin, 0.125 mg/mL Benzoyl-Arginine p-nitroanilide (BAPNA). Capryl-glucoside:
Copper sulfate stock solution: 1 mg/ml of copper sulfate was dissolved in 50 mM TRIS pH 7. Copper tartrate stock solution: 1 mg/ml of copper tartrate was dispersed in 50 mM TRIS pH 7 and moderately stirred for 5 minutes. The suspension was then centrifuged at 3′000 rpm for 10 minutes, to separate the insoluble salt. The supernatant was used as stock solution for the experiments.
Zinc orotate stock solution: 1 mg/ml of zinc orotate was dispersed in 50 mM TRIS pH 7 and moderately stirred for 5 minutes. The suspension was then centrifuged at 3′000 rpm for 10 minutes, to separate the insoluble salt. The supernatant was used as stock solution for the experiments.
100 μL of the respective salt solution stock+50 μL Trypsin Stock+50 μL BAPNA Stock
Control: 100 μL of 50 mM TRIS pH 7+50 μL Trypsin Stock+50 μL BAPNA Stock
Final concentrations of protease and substrate were 0.025 mg/ml Trypsin, 0.125 mg/mL
50 μl manganese sulfate+50 μl copper gluconate+50 μL Trypsin Stock+50 μL BAPNA Stock
Absorption measurement at 405 nm; final pH in all solutions was monitored to be pH 7.
3 mg/ml SiO2—suspended in 50 mM TRIS pH 7 and centrifuged; supernatant was used for experiments.
50 μl SiO2+50 μl 50 mM TRIS pH 7+50 μL Trypsin Stock+50 μL BAPNA Stock
50 μl copper gluconate+50 μl SiO2+50 μL Trypsin Stock+50 μL BAPNA Stock
50 μl iron gluconate+50 μl SiO2+50 μL Trypsin Stock+50 μL BAPNA Stock
120 μl 50 mM TRIS pH 7+50 μL Trypsin Stock+50 μL BAPNA Stock
80 μl copper gluconate+40 μl 50 mM TRIS pH 7+50 μL Trypsin Stock+50 μL BAPNA Stock
40 μl copper gluconate+80 μl 50 mM TRIS pH 7+50 μL Trypsin Stock+50 μL BAPNA Stock
80 μl iron gluconate+40 μl 50 mM TRIS pH 7+50 μL Trypsin Stock+50 μL BAPNA Stock
40 μl iron gluconate+80 μl 50 mM TRIS pH 7+50 μL Trypsin Stock+50 μL BAPNA Stock
80 μl iron gluconate+40 μl copper gluconate+50 μL Trypsin Stock+50 μL BAPNA Stock

chymotrypsin = chymotrypsin (Bos taurus, UniProt P00766); experiment: Chymotrypsin inhibition, BTPNA substrate, absorbance at 405 nm (Examples 9, 13-19, 23, 24, 27, 30, 31)
Procedure: CuSO4.5H2O dilutions in 10 mM TRIS buffer pH 7 to 10 mM, 5 mM, 2.5 mM 1.25 mM Benzoyl-Tyrosine p-nitroanilide (BTPNA): 0.5 mg/mL BTPNA in Acetone
Study: • (1) 100 μl buffer (10 mM TRIS, pH=7)+50 μl Chymotrypsin Stock+50 μl BTPNA • (2) 80 μl buffer (10 mM TRIS, pH=7)+20 μl CuSO4 stock (10 mM)+50 μl Chymotrypsin Stock+50 μl BTPNA • (3) 80 μl buffer (10 mM TRIS, pH=7)+20 μl CuSO4 dilut. (5 mM)+50 μl Chymotrypsin Stock+50 μl BTPNA • (4) 80 μl buffer (10 mM TRIS, pH=7)+20 μl CuSO4 stock (2.5 mM)+50 μl Chymotrypsin Stock+50 μl BTPNA • (5) 80 μl buffer (10 mM TRIS, pH=7)+20 μl CuSO4 dilut. (1.25 mM)+50 μl Chymotrypsin Stock+50 μl BTPNA
Final copper concentrations: 1 mM, 0.5 mM, 0.25 mM, 0.125 mM.
10 mM CuSO4 and Copper gluconate stock solution were diluted 1:1 with 10 mM TRIS buffer pH 7
Study: • (1) 100 μl buffer (10 mM TRIS, pH=7)+50 μl Chymotrypsin Stock+50 μl BTPNA • (2) 80 μl buffer (10 mM TRIS, pH=7)+20 μl CuSO4 dil. (5 mM)+50 μl Chymotrypsin Stock+50 μl BTPNA • (3) 80 μl buffer (10 mM TRIS, pH=7)+20 μl Copper gluconate dilut. (5 mM)+50 μl Chymotrypsin Stock+50 μl BTPNA • (4) 100 μl Cu-bisglycinate stock (0.5 mM)+50 μl Chymotrypsin Stock+50 μl BTPNA
10 mM CuSO4 stock solution was diluted 1:1 with 10 mM TRIS Puffer pH 7
Study: • (1) 30 μl buffer (10 mM TRIS, pH=7)+20 μl CuSO4 dil. (5 mM)+100 μl Chymotrypsin Stock: 30 min. incubation, then addition of 50 μl BTPNA • (2) 30 μl buffer (10 mM TRIS, pH=7)+100 μl Chymotrypsin Stock: 30 min. incubation, then addition of 20 μl CuSO4 dil. (5 mM)+50 μl BTPNA
Final copper concentration: 0.5 mM
Iron(II)-bisglycinate solution containing 1.86 mM of iron in 10 mM TRIS buffer pH 7 was prepared
Cu(II)-gluconate solution containing 2.0 mM of copper in 10 mM TRIS buffer pH 7 was prepared
Study: • (1) 100 μl buffer (10 mM TRIS, pH=7)+50 μl Chymotrypsin Stock+50 μl BTPNA • (2) 100 μl iron(II)-bisglycinate+50 μl Chymotrypsin Stock+50 μl BTPNA • (3) 100 μl copper(II)-gluconate+50 μl Chymotrypsin Stock+50 μl BTPNA
Values were corrected (subtraction of blank). Inhibition was calculated by setting the absorption value of (1) at each time-point as 100%.
Iron(II)-bisglycinate solution containing 0.46 mM of iron in 10 mM TRIS buffer pH 7 was prepared
Cu(II)- bisglycinate solution containing 0.46 mM of copper in 10 mM TRIS buffer pH 7 was prepared
Study: • (1) 100 μl buffer (10 mM TRIS, pH=7)+50 μl Chymotrypsin Stock+50 μl BTPNA • (2) 100 μl iron(II)-bisglycinate+50 μl Chymotrypsin Stock+50 μl BTPNA • (3) 100 μl copper(II)-bisglycinate+50 μl Chymotrypsin Stock+50 μl BTPNA
Values were corrected (subtraction of blank). Inhibition (%) was calculated by setting the absorption value of (1) at each time-point as 100% degradation.
Values were corrected (subtraction of blank). pH was confirmed to be pH 7 after the experiment.
0.025 mg/ml Chymotrypsin, 0.05 mg/mL Benzoyl-Tyrosine p-nitroanilide (BTPNA). Lauryl glutamate: 0.25 mg/ml; copper (as copper gluconate): 0.035 mg/ml.
0.025 mg/ml Chymotrypsin, 0.05 mg/mL Benzoyl-Tyrosine p-nitroanilide (BTPNA). Lauryl glutamate: 0.25 mg/ml; iron (as iron gluconate): 0.03 mg/ml.
100 μl 50 mM TRIS pH 7+50 μL Chymotrypsin Stock+50 μL BTPNA Stock
50 μl Beta-cyclodextrin+50 μl 50 mM TRIS pH 7+50 μL Chymotrypsin Stock+50 μL BTPNA Stock
50 μl copper gluconate+50 μl 50 mM TRIS pH 7+50 μL Chymotrypsin Stock+50 μL BTPNA Stock
50 μl copper gluconate+50 μl Beta-cyclodextrin+50 μL Chymotrypsin Stock+50 μL BTPNA Stock
50 μl copper gluconate+50 μl trisodium phosphate+50 μL Chymotrypsin Stock+50 μL BTPNA Stock
50 μl iron gluconate+50 μl trisodium phosphate+50 μL Chymotrypsin Stock+50 μL BTPNA Stock
Experiments were carried out at pH 7 in 50 mM TRIS buffer.

[3] = desmopressin acetate + FeCl3 5 mg/ml + absorption enhancer 10 mg/ml in 2 ml aqua purificata
[4] = desmopressin acetate + ZnSO4 5 mg/ml + absorption enhancer 10 mg/ml in 2 ml aqua purificata
[5] = Example 16, 0 minutes, metal ion 0.015 mg/ml ([…]), 10 mM TRIS pH 7
[6] = Example 26, 1 mg/ml stocks (supernatant for copper tartrate and zinc orotate), pH 7, 50 mM TRIS, FIG. 17

Molecule | Dissolution in aqueous medium (2 ml) [1, 3] | Dissolution in aqueous medium (2 ml) [1, 4] | Dissolution in aqua purificata [2] | other results
C[C@H](CCC(=O)O)[C@H]1CC[C@H]2[C@@H]3[C@H](O)C[C@@H]4C[C@H](O)CC[C@]4(C)[C@H]3C[C@H](O)[C@]12C [Cholic acid] | Precipitation | Precipitation |  | 
O=C(O)CC(O)(CC(=O)O)C(=O)O [Citric acid] |  | Clear solution |  | 
O=S(=O)([O-])[O-].[Cu+2] [Copper sulfate] |  |  | precipitation | trypsin inhibition (trypsin; pH 7): strongly inhibited; inhibition of chymotrypsin (chymotrypsin; Example 9, final copper 1, 0.5, 0.25, 0.125 mM, 10 mM TRIS pH 7, FIG. 2): inhibits the proteolytic enzyme chymotrypsin in a dose dependent manner; influence of copper pre-incubation on chymotrypsin activity (chymotrypsin; Example 14, CuSO4, final copper 0.5 mM, 30 min pre-incubation, FIG. 7): increases the chymotrypsin inhibitory activity
NCC(=O)[O-].NCC(=O)[O-].[Cu+2] [Copper-bisglycinate] |  |  |  | Inhibition % (chymotrypsin; [5]): 0%
O=C(O)CN(CCN(CC(=O)O)CC(=O)O)CC(=O)O [EDTA] |  |  |  | chymotrypsin inhibition (chymotrypsin; Example 18, stocks: copper gluconate 10 mM, EDTA 5 mM, sodium caprylate 4 mg/ml, pH 7, FIG. 9): can inhibit chymotrypsin; effect on chymotrypsin inhibition (chymotrypsin; Example 19, EDTA added to a solution of copper gluconate, Tween 20 and sodium caprylate, FIG. 10): positive effect on chymotrypsin inhibition; chymotrypsin inhibition (chymotrypsin; Example 31, stocks […] copper(II)gluconate, 1.25 mM EDTA, pH 7, 10 mM TRIS, FIG. 22): can be inhibited
[Cl][Fe]([Cl])[Cl] [Fe(III)chlorid, iron(III) chloride] |  |  | precipitation | 
NCC(=O)[O-].NCC(=O)[O-].[Fe+2] [Iron bisglycinate] |  |  | Clear brownish solution | Inhibition % (chymotrypsin; Example 15, 0 minutes, metal ion Fe 0.06 mg/ml (0.92 mM), Cu 0.065 mg/ml (1.0 mM), 10 mM TRIS pH 7): 0%; Inhibition % (chymotrypsin; Example 15, 15 minutes, metal ion Fe 0.92 mM, Cu 1.0 mM): 69%; Inhibition % (chymotrypsin; Example 15, 30 minutes, metal ion Fe 0.92 mM, Cu 1.0 mM): 62%; Inhibition % (chymotrypsin; Example 15, 45 minutes, metal ion Fe 0.92 mM, Cu 1.0 mM): 56%; Inhibition % (chymotrypsin; Example 15, 60 minutes, metal ion Fe 0.92 mM, Cu 1.0 mM): 52%; Inhibition % (chymotrypsin; [5]): 0%
CCCCCCCCCCCC(=O)OC(CC(=O)O)C[N+](C)(C)C.[Cl-] (stereo not shown) [Lauroyl carnitine HCl] | Clear solution | Clear solution |  | 
CCCCCCCCCC(=O)[O-].[Na+] [Sodium caprate] | Precipitation | Precipitation |  | 
CCCCCCCC(=O)[O-].[Na+] [Sodium caprylate] | Precipitation | Precipitation |  | 
C[C@H](CCC(=O)[O-])[C@H]1CC[C@H]2[C@@H]3[C@H](O)C[C@@H]4C[C@H](O)CC[C@]4(C)[C@H]3C[C@H](O)[C@]12C.[Na+] [Sodium cholate] | Precipitation | Precipitation |  | 
CCCCCCCCCCCCOS(=O)(=O)[O-].[Na+] [Sodium dodecyl sulfate] | Clear solution | Clear solution |  | 
CC(=O)[O-].CC(=O)[O-].[Zn+2] [Zinc acetate] |  |  | precipitation | 
[Cl-].[Cl-].[Zn+2] [ZnCl2, zinc chloride] |  |  | precipitation | 
O=S(=O)([O-])[O-].[Zn+2] [ZnSO4, zinc sulfate] |  |  | precipitation | 
O=C([O-])C(O)C(O)C(=O)[O-].[Cu+2] (stereo not shown) [copper tartrate] |  |  |  | trypsin inhibition (trypsin; [6]): show trypsin inhibitory properties in vitro
NCCCC[C@H](N)C(=O)O.NCCCC[C@H](N)C(=O)O.[Cu] [copper(II)lysinate] |  |  |  | trypsin inhibition (trypsin; Example 20, solutions 1 mg/mL iron gluconate, 1 mg/mL copper gluconate, 12 mg/mL copper lysinate, FIG. 11): can be inhibited
CCCCCCCCCCCCO[C@@H]1O[C@H](CO)[C@@H](O[C@H]2O[C@H](CO)[C@@H](O)[C@H](O)[C@H]2O)[C@H](O)[C@H]1O [n-Dodecyl-b-D-maltoside] | Clear solution | Clear solution |  | 
CCCCCCCCO[C@@H]1O[C@H](CO)[C@@H](O)[C@H](O)[C@H]1O [n-Octyl-b-D-glucopyranoside] | Clear solution | Clear solution |  | 
NCC(=O)[O-].NCC(=O)[O-].[Zn+2] [zinc bisglycinate] |  |  |  | inhibition of trypsin (trypsin; pH 7): inhibits the proteolytic enzyme trypsin in a dose dependent manner
Copper orotate |  |  | Clear solution | 
Zinc carnosine |  |  | Clear solution | 
Zinc orotate |  |  | Clear solution | trypsin inhibition (trypsin; [6]): show trypsin inhibitory properties in vitro
Zinc picolinate |  |  | Clear solution | 
lauryl-glutamate |  |  |  | trypsin inhibition (trypsin; Example 21, lauryl glutamate […], copper […], pH 7, 50 mM TRIS, FIG. 12): can be inhibited; trypsin inhibition (trypsin; Example 22, lauryl-glutamate […], iron 0.03 mg/ml, pH 7, 50 mM TRIS, FIG. 13): can be inhibited
